In ChEMBL document CHEMBL3045223, “Synthesis, nematicidal and antimicrobial properties of Bis-[4-methoxy-3-[3-(4-fluorophenyl)-6-(4-methylphenyl)-2(aryl)-tetrahydro-2H-pyrazolo[3,4-d]thiazol-5-yl]phenyl]methanes” (2009):
Values after ≈ are worked out from the molar mass of the structure shown. Active and inactive are the calls of the source. The rule behind the calls is not given here.

Tests used:
Assay type in all cases: functional
[1] = system: Lysinibacillus sphaericus; assay: Antibacterial activity against Lysinibacillus sphaericus MTCC 11 assessed as inhibition zones at 300 ug/disk at 37 degC for 24 hr; conditions: MTCC 11, 24 h, read-out: IZ
Klebsiella aerogenes [2] = assay: Antibacterial activity against Enterobacter aerogenes MTCC 39 assessed as growth arrest at 37 degC for 24 hr; conditions: MTCC 39, 24 h
[3] = system: Chromobacterium violaceum; assay: Antibacterial activity against Chromobacterium violaceum MTCC 2656 assessed as growth arrest at 37 degC for 24 hr; conditions: MTCC 2656, 24 h
[4] = system: Ditylenchus myceliophagus; assay: Nematicidal activity against Ditylenchus myceliophagus assessed as immobility; conditions: read-out: LD50 (the source's name)
[5] = system: Lysinibacillus sphaericus; assay: Antibacterial activity against Lysinibacillus sphaericus MTCC 11 assessed as growth arrest at 37 degC for 24 hr; conditions: MTCC 11, 24 h
Candida albicans [6] = assay: Antifungal activity against Candida albicans ATCC 10231 assessed as growth inhibition at 300 ug/disk at 37 degC for 48 hr; conditions: for zone of inhibition at 300 µg/disc: ATCC 10231, 48 h, read-out: IZ
Trichophyton rubrum [7] = assay: Antifungal activity against Trichophyton rubrum IFO 9185 assessed as growth inhibition at 37 degC for 48 hr
Bacillus subtilis [8] = assay: Antibacterial activity against Bacillus subtilis MTCC 441 assessed as growth arrest at 37 degC for 24 hr; conditions: MTCC 441, 24 h
[9] = system: Trichophyton mentagrophytes; assay: Antifungal activity against Trichophyton mentagrophytes IFO 40996 assessed as growth inhibition at 300 ug/disc at 37 degC for 48 hr
Candida albicans [10] = assay: Antifungal activity against Candida albicans ATCC 10231 assessed as growth inhibition at 37 degC for 48 hr; conditions: ATCC 10231, 48 h
Trichophyton rubrum [11] = assay: Antifungal activity against Trichophyton rubrum IFO 9185 assessed as growth inhibition at 300 ug/disk at 37 degC for 48 hr; conditions: for zone of inhibition at 300 µg/disc: IFO 9185, 48 h, read-out: IZ
Pseudomonas aeruginosa [12] = assay: Antibacterial activity against Pseudomonas aeruginosa MTCC 741 assessed as inhibition zones at 300 ug/disk at 37 degC for 24 hr; conditions: MTCC 741, 24 h, read-out: IZ
Staphylococcus aureus [13] = assay: Antibacterial activity against Staphylococcus aureus MTCC 96 assessed as inhibition zones at 300 ug/disc at 37 degC for 24 hr; conditions: MTCC 96, 24 h, read-out: IZ
Pseudomonas aeruginosa [14] = assay: Antibacterial activity against Pseudomonas aeruginosa MTCC 741 assessed as growth arrest at 37 degC for 24 hr; conditions: MTCC 741, 24 h
[15] = system: Trichophyton mentagrophytes; assay: Antifungal activity against Trichophyton mentagrophytes IFO 40996 assessed as growth inhibition at 37 degC for 48 hr
Staphylococcus aureus [16] = assay: Antibacterial activity against Staphylococcus aureus MTCC 96 assessed as growth arrest at 37 degC for 24 hr; conditions: MTCC 96, 24 h
[17] = system: Chromobacterium violaceum; assay: Antibacterial activity against Chromobacterium violaceum MTCC 2656 assessed as inhibition zones at 300 ug/disk at 37 degC for 24 hr; conditions: MTCC 2656, 24 h, read-out: IZ
Klebsiella aerogenes [18] = assay: Antibacterial activity against Enterobacter aerogenes MTCC 39 assessed as inhibition zones at 300 ug/disk at 37 degC for 24 hr; conditions: MTCC 39, 24 h, read-out: IZ
Aspergillus fumigatus [19] = assay: Antifungal activity against Aspergillus fumigatus HIC 6094 assessed as growth inhibition at 300 ug/disc at 37 degC for 48 hr; conditions: for zone of inhibition at 300 µg/disc: HIC 6094, 48 h, read-out: IZ
Caenorhabditis elegans = assay: Nematicidal activity against Caenorhabditis elegans assessed as immobility; conditions: read-out: LD50 (the source's name)
Aspergillus fumigatus [20] = assay: Antifungal activity against Aspergillus fumigatus HIC 6094 assessed as growth inhibition at 37 degC for 48 hr
Bacillus subtilis [21] = assay: Antibacterial activity against Bacillus subtilis MTCC 441 assessed as inhibition zones at 300 ug/disk at 37 degC for 24 hr; conditions: MTCC 441, 24 h, read-out: IZ

| Compound | zone of inhibition at 300 µg/disc [1] [mm] | MBC (Klebsiella aerogenes [2]) [µg/mL] | MIC (Klebsiella aerogenes [2]) [µg/mL] | MBC [3] [µg/mL] | MIC [3] [µg/mL] | LC50 [4] [µg/mL] | MBC [5] [µg/mL] | MIC [5] [µg/mL] | MBC (Bacillus subtilis [8]) [µg/mL] | MIC (Bacillus subtilis [8]) [µg/mL] | MBC (Candida albicans [10]) [µg/mL] | MIC (Candida albicans [10]) [µg/mL] | zone of inhibition at 300 µg/disc (Pseudomonas aeruginosa [12]) [mm] | zone of inhibition at 300 µg/disc (Staphylococcus aureus [13]) [mm] | MBC (Pseudomonas aeruginosa [14]) [µg/mL] | MIC (Pseudomonas aeruginosa [14]) [µg/mL] | MBC (Staphylococcus aureus [16]) [µg/mL] | MIC (Staphylococcus aureus [16]) [µg/mL] | zone of inhibition at 300 µg/disc [17] [mm] | zone of inhibition at 300 µg/disc (Klebsiella aerogenes [18]) [mm] | also measured |
| --- | --- | --- | --- | --- | --- | --- | --- | --- | --- | --- | --- | --- | --- | --- | --- | --- | --- | --- | --- | --- | --- |
| COc1ccc(Cc2ccc(OC)c(C3SC4C(=NN(c5ccccc5)C4c4ccc(F)cc4)N3c3ccc(Cl)cc3)c2)cc1C1SC2C(=NN(c3ccccc3)C2c2ccc(F)cc2)N1c1ccc(Cl)cc1 (stereo not drawn) | 21 | 25 (≈ 23.9 µM) | 12.5 (≈ 12 µM) | 25 (≈ 23.9 µM) | 12.5 (≈ 12 µM) | 810 (≈ 776 µM) | 50 (≈ 47.9 µM) | 12.5 (≈ 12 µM) | 25 (≈ 23.9 µM) | 6.25 (≈ 5.99 µM) | 6.25 (≈ 5.99 µM) | 6.25 (≈ 5.99 µM) | 19 | 20 | 12.5 (≈ 12 µM) | 6.25 (≈ 5.99 µM) | 50 (≈ 47.9 µM) | 25 (≈ 23.9 µM) | 20 | 22 | inhibition zone (IZ) (Candida albicans [6]): inactive; MBC (Trichophyton rubrum [7]; IFO 9185, 48 h): 12.5 µg/mL (≈ 12 µM); MIC (Trichophyton rubrum [7]; IFO 9185, 48 h): 12.5 µg/mL (≈ 12 µM); inhibition zone (IZ) [9]: inactive; zone of inhibition at 300 µg/disc (Trichophyton rubrum [11]): 17 mm; MBC ([15]; IFO 40996, 48 h): 12.5 µg/mL (≈ 12 µM); MIC ([15]; IFO 40996, 48 h): 6.25 µg/mL (≈ 5.99 µM); inhibition zone (IZ) (Aspergillus fumigatus [19]): inactive; LC50 (Caenorhabditis elegans): 650 µg/mL (≈ 623 µM); MBC (Aspergillus fumigatus [20]; HIC 6094, 48 h): 25 µg/mL (≈ 23.9 µM); MIC (Aspergillus fumigatus [20]; HIC 6094, 48 h): 12.5 µg/mL (≈ 12 µM); zone of inhibition at 300 µg/disc (Bacillus subtilis [21]): 18 mm |
| COc1ccc(Cc2ccc(OC)c(C3SC4C(=NN(c5ccc(Cl)cc5)C4c4ccc(F)cc4)N3c3ccc([N+](=O)[O-])cc3)c2)cc1C1SC2C(=NN(c3ccc(Cl)cc3)C2c2ccc(F)cc2)N1c1ccc([N+](=O)[O-])cc1 (stereo not drawn) | 16 | 25 (≈ 22 µM) | 12.5 (≈ 11 µM) | 50 (≈ 44.1 µM) | 12.5 (≈ 11 µM) | 230 (≈ 203 µM) | 50 (≈ 44.1 µM) | 12.5 (≈ 11 µM) | 50 (≈ 44.1 µM) | 6.25 (≈ 5.51 µM) | 25 (≈ 22 µM) | 25 (≈ 22 µM) | 16 | 16 | 50 (≈ 44.1 µM) | 50 (≈ 44.1 µM) | 25 (≈ 22 µM) | 6.25 (≈ 5.51 µM) | 16 | 20 | zone of inhibition at 300 µg/disc (Candida albicans [6]): 15 mm; MBC (Trichophyton rubrum [7]; IFO 9185, 48 h): 50 µg/mL (≈ 44.1 µM); MIC (Trichophyton rubrum [7]; IFO 9185, 48 h): 25 µg/mL (≈ 22 µM); inhibition zone (IZ) [9]: inactive; inhibition zone (IZ) (Trichophyton rubrum [11]): inactive; MBC ([15]; IFO 40996, 48 h): 12.5 µg/mL (≈ 11 µM); MIC ([15]; IFO 40996, 48 h): 6.25 µg/mL (≈ 5.51 µM); inhibition zone (IZ) (Aspergillus fumigatus [19]): inactive; LC50 (Caenorhabditis elegans): 350 µg/mL (≈ 309 µM); MBC (Aspergillus fumigatus [20]; HIC 6094, 48 h): 50 µg/mL (≈ 44.1 µM); MIC (Aspergillus fumigatus [20]; HIC 6094, 48 h): 25 µg/mL (≈ 22 µM); zone of inhibition at 300 µg/disc (Bacillus subtilis [21]): 21 mm |
| COc1ccc(Cc2ccc(OC)c(C3SC4C(=NN(C)C4c4ccc(F)cc4)N3c3ccc(C)cc3)c2)cc1C1SC2C(=NN(C)C2c2ccc(F)cc2)N1c1ccc(C)cc1 (stereo not drawn) | 13 | 12.5 (≈ 14.2 µM) | 6.25 (≈ 7.11 µM) | 12.5 (≈ 14.2 µM) | 6.25 (≈ 7.11 µM) | 160 (≈ 182 µM) | 25.5 (≈ 29 µM) | 12.5 (≈ 14.2 µM) | 50 (≈ 56.9 µM) | 6.25 (≈ 7.11 µM) | 3.12 (≈ 3.55 µM) | 3.12 (≈ 3.55 µM) | 14 | 25 | 12.5 (≈ 14.2 µM) | 12.5 (≈ 14.2 µM) | 25 (≈ 28.4 µM) | 12.5 (≈ 14.2 µM) | 18 | 20 | zone of inhibition at 300 µg/disc (Candida albicans [6]): 20 mm; MBC (Trichophyton rubrum [7]; IFO 9185, 48 h): 6.25 µg/mL (≈ 7.11 µM); MIC (Trichophyton rubrum [7]; IFO 9185, 48 h): 3.12 µg/mL (≈ 3.55 µM); zone of inhibition at 300 µg/disc ([9]; IFO 40996, 48 h, read-out: IZ): 18 mm; zone of inhibition at 300 µg/disc (Trichophyton rubrum [11]): 20 mm; MBC ([15]; IFO 40996, 48 h): 12.5 µg/mL (≈ 14.2 µM); MIC ([15]; IFO 40996, 48 h): 6.25 µg/mL (≈ 7.11 µM); zone of inhibition at 300 µg/disc (Aspergillus fumigatus [19]): 20 mm; LC50 (Caenorhabditis elegans): 200 µg/mL (≈ 228 µM); MBC (Aspergillus fumigatus [20]; HIC 6094, 48 h): 6.25 µg/mL (≈ 7.11 µM); MIC (Aspergillus fumigatus [20]; HIC 6094, 48 h): 3.12 µg/mL (≈ 3.55 µM); zone of inhibition at 300 µg/disc (Bacillus subtilis [21]): 13 mm |
| COc1ccc(Cc2ccc(OC)c(C3SC4C(=NN(C(C)C)C4c4ccc(F)cc4)N3c3ccc(C)cc3)c2)cc1C1SC2C(=NN(C(C)C)C2c2ccc(F)cc2)N1c1ccc(C)cc1 (stereo not drawn) | 13 | 12.5 (≈ 13.4 µM) | 12.5 (≈ 13.4 µM) | 25 (≈ 26.7 µM) | 25 (≈ 26.7 µM) | 550 (≈ 588 µM) | 50 (≈ 53.5 µM) | 50 (≈ 53.5 µM) | 50 (≈ 53.5 µM) | 25 (≈ 26.7 µM) | 25 (≈ 26.7 µM) | 12.5 (≈ 13.4 µM) | 23 | 23 | 12.5 (≈ 13.4 µM) | 6.25 (≈ 6.68 µM) | 50 (≈ 53.5 µM) | 25 (≈ 26.7 µM) | 16 | 19 | inhibition zone (IZ) (Candida albicans [6]): inactive; MBC (Trichophyton rubrum [7]): inactive; MIC (Trichophyton rubrum [7]): inactive; inhibition zone (IZ) [9]: inactive; inhibition zone (IZ) (Trichophyton rubrum [11]): inactive; MBC [15]: inactive; MIC [15]: inactive; zone of inhibition at 300 µg/disc (Aspergillus fumigatus [19]): 13 mm; LC50 (Caenorhabditis elegans): 600 µg/mL (≈ 642 µM); MBC (Aspergillus fumigatus [20]): inactive; MIC (Aspergillus fumigatus [20]): inactive; zone of inhibition at 300 µg/disc (Bacillus subtilis [21]): 13 mm |
